This is an account of results in patent US20240390490A1, “PHARMACEUTICAL COMPOSITIONS FOR THE TREATMENT OF CANCERS” (Rutgers, The State University of New Jersey, priority 2021, published 2024).

By IC50 is commonly meant the concentration at which inhibition is half-maximal.

Series [1] has as its system CT26 colon cancer cells. The series can be described thus: CT26 colon cancer subcutaneous tumors in BALB/c mice. It counts as in vivo, mouse. The settings on record: male and female mice.
Description: Balb/c mice (both male and female) were obtained from Taconic Biosciences and injected with 1×10^6 cells of CT26. Once palpable tumors develop (˜50 mm3), animals were allocated into 6 groups (3 mice/group). […] Mice were monitored every day. Tumor volume and mice weight were measured daily. Animals were euthanized when the tumor reached 2,000 mm^3. […] For tumor growth study, Mouse CT26 colon cancer cells were grown until about 90% confluence just 1 day before injection. […] Three dimensions of tumor were measured using electronic calipers, and tumor volumes were calculated by the formula as, L×W^2/2. The mean±SE of tumor volume was calculated weekly for each experimental group and the data are expressed as mean absolute tumor volume.
Series [2] relates to YAC-1 target cells. Description: NK cell cytotoxicity of PBMC- and spleen-derived NK cells (calcein AM). Type of series: in vivo, rat. As for the experimental part:
After the end of the drug treatment period, the spleen tissues from control and drug-treated rats were processed, and RBCs and granulocytes were removed from splenocyte suspensions by density centrifugation using Histopaque 1083 (Sigma-Aldrich) as previously described (8). Splenocytes (˜10×10^7 cells per spleen) were extracted from the middle layer, washed with RPMI-1640 (Gibco), and resuspended in buffer (PBS, 0.5% BSA). Splenocytes were incubated with primary Abs conjugated to FITC (BD Biosciences), anti-CD6 (OX52; T cells), anti-CD45RA (OX-33; mature B cells), and anti-RT1B (OX-6; dendritic cells and macrophages), followed by secondary incubation with anti-FITC microbeads, according to the manufacturer's instructions (Miltenyi Biotec). NK cells were then enriched by magnetic separation (negative selection) using an AutoMACS Magnetic Separator (Miltenyi Biotec). The enriched fraction consistently yielded ˜5×10^6 cells per spleen with a purity of ˜80-90%. […] The pelleted cells (PBMC) were counted in a hemocytometer and assayed for viability by trypan blue exclusion. […]
The cytotoxicity of enriched NK cells from PBMC and the spleen against NK-sensitive YAC-1 (ATCC) target cells was determined by calcein AM assays as previously described (8). […] All assays were analyzed and percent cytotoxicity for each sample was calculated as previously described (8).

Series [3] deals with MDA-MB-468 and T47D cells. The series can be described thus: Cell cycle analysis (PI staining). Type of series: cell-based, human. The settings on record: 100 μM. As for the experimental part:
Cell cycle analysis of breast cancer cells was carried out using propidium iodide (PI) staining protocol according to the manufacturer's instructions (Nexcelom Bioscience LLC, Lawrence, MA). […] Then, cells were harvested by trypsinization, centrifuged at 2000 rpm for 5 minutes, washed with PBS (pH 7.4), and fixed in ice cold 100% ethanol for 15 minutes. The cells were spun down and resuspended in 150 μl of PI-staining solution provided with the Cellometer PI Cell Cycle Kit. The PI-stained cells were then subjected to analysis in the Cellometer Vision instrument (Nexcelom Bioscience LLC) and the data was captured on Cellometer Vision CBA software (Nexcelom Bioscience LLC) and analyzed by FCS Express 4 software (Molecule Devices, Corp., Sunnyvale, CA). Differences in fluorescence intensity were used to determine the percentage of cells in each phase of the cell cycle and represented as histograms for control and drug-treated samples.

The conditions of series [4]: cited from earlier work.
The subject of series [5] is MDA-MB-231, MDA-MB-468, and T47D cells. The settings on record: read-out: IC50 dose; range over cell lines and time of treatment (24, 48, 72 hours). The procedure:
Cells in media with vehicle treatment are considered control wells. MTT (3-(4,5-dimethyl-2-thiazolyl)-2,5-diphenyl-2H-tetrazolium bromide) was prepared as a stock solution of 5 mg/mL in 1× phosphate-buffered saline (PBS, pH 7.2). At the end of the drug treatment period (24 or 48 or 72 hours), 10 μL of MTT solution was added to each well. After incubation for 4 hours at 37° C., 100 μL of solubilizing buffer (10% sodium dodecyl sulfate dissolved in 0.01 N HCl) was added to each well. After a 15-minute incubation at 37° C., the 96-well plate was read by a plate reader at 590 nm for absorbance density values to determine the cell viability. The cell viability (percentage of control) is calculated by using the following formula: (OD of treated well (−blank))/(mean OD control well (−blank))×100. […] Drug effects on these cells were determined in quadruplicate wells in three independent experiments.

As to `CC(C)NCC(O)COc1cccc2ccccc12` (centres unmarked) [PRO, propranolol], in series [1], the tumor volume result is given as “decreasing tumor volume”. For the same molecule, the “NK cell cytolytic activity” value in series [2] is given as “elevated”.

As for `O=C1CC[C@@]2(O)[C@H]3Cc4ccc(O)c5c4[C@@]2(CCN3CC2CC2)[C@H]1O5` [NTX, 17-(cyclopropylmethyl)-4,5α-epoxy-3,14-dihydroxymorphinan-6-one], the “number of cells in the G0/G1 cycle” value in series [3] is on record as “moderately but not significantly reduced”. For the same molecule, the water solubility entry in series [4] is “not water soluble”.

Turning to `CC1(C)SSC(C)(C)[C@@H](NC(=O)[C@@H](N)Cc2ccc(O)cc2)C(=O)NCC(=O)N[C@@H](Cc2ccccc2)C(=O)N[C@H]1C(=O)O` [DPDPE, (D-Pen^2, D-Pen^5)-enkephalin], in series [5], the IC50 was in the range of 115 to 140 µM.
